Data set [1] has as its target Sodium-dependent dopamine transporter (Homo sapiens, UniProt Q01959). Put plainly: Inhibition of [3H]WIN-35428 uptake in human DAT transfected HEK293 cells. It counts as cell-based.
Data set [2] deals with Sodium-dependent serotonin transporter (Homo sapiens, UniProt P31645). Put plainly: Inhibition of [3H]Citalopram uptake in human 5HTT transfected HEK293 cells. Format: cell-based.
For data set [3], the target named is Sodium-dependent noradrenaline transporter (Homo sapiens, UniProt P23975).
Description: Inhibition of [3H]Nisoxetine uptake in human noradrenaline transporter transfected HEK293 cells
The test system of data set [4] is P-gp. Briefly: Apparent permeability from apical to basolateral side of the dog MDCK cells expressing P-gp transporter. The settings on record: MDCK-MDR1. Format: ADME, cell-based, Canis lupus familiaris.
The subject of data set [5] is P-gp. Put plainly: Apparent permeability from basolateral to apical side of the dog MDCK cells expressing Pgp transporter. Format: ADME, cell-based, Canis lupus familiaris. The following applies: MDCK-MDR1.
Data set [6] in a line: Metabolic stability assessed as intrinsic clearance in human liver microsome. Format: ADME. The settings on record: liver microsomes.
Data set [7] in a line: Lipophilicity, logD at pH 7.4. It counts as physicochemical. The settings on record: buffer.
Data set [8] can be described thus: Dissociation constant, pKa of the compound. Format: physicochemical.
The next data set has as its target Cytochrome P450 2D6 (Homo sapiens, UniProt P10635). Put plainly: Inhibition of CYP2D6. It counts as ADME.
Data set [9] concerns the target Mu-type opioid receptor (Homo sapiens) (UniProt P35372). Put plainly: Inhibition of mu opioid receptor at 10 uM.
A further data set concerns Hepatocyte. Put plainly: Metabolic stability assessed as intrinsic clearance in human hepatocytes. Format: ADME, cell-based, Liver.
Data set [10] can be described thus: Half life in human liver microsome. It counts as ADME. The following applies: liver microsomes.
A short description of data set [11]: Apparent permeability from apical to basolateral side of the human CaCO2 membrane. Format: ADME, cell-based. The following applies: Caco-2.
Data set [12] is described as follows: Apparent permeability from basolateral to apical side of the human CaCO2 membrane. The following applies: Caco-2. It counts as ADME, cell-based.
In a further data set the target is T1, Cytochrome P450 1A2 (Homo sapiens, UniProt P05177).
T1 sequence (P05177 whole entry): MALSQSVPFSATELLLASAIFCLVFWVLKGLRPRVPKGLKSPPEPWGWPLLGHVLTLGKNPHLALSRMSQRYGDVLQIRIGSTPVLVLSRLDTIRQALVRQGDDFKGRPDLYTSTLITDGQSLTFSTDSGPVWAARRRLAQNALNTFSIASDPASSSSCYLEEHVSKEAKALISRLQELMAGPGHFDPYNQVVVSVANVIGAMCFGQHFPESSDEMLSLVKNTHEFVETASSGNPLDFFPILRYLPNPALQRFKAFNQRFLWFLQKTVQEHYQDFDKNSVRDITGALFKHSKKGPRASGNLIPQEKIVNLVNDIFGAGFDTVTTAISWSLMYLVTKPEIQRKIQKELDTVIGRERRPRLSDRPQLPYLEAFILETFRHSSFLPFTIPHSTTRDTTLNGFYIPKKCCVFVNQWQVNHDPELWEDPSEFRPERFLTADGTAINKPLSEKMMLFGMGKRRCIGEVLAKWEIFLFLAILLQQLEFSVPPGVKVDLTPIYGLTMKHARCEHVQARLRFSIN
Briefly: Inhibition of CYP1A2. Format: ADME.

The target in the next data set is Cytochrome P450 3A4 (Homo sapiens, UniProt P08684). Briefly: Inhibition of CYP3A4. Format: ADME.
A short description of data set [13]: Binding affinity to sodium channel site 2.
Data set [14] is described as follows: Binding affinity to calcium channel L-type at diltiazem site.
Data set [15] is described as follows: Displacement of [3H]noradrenaline from rat noradrenaline transporter expressed in HEK293 cells. Format: cell-based.
For the next data set, the system named is Rattus norvegicus. Put plainly: Increase in noradrenaline level in interstitial fluid of conscious rat prefrontal cortex at 0.3 mg/kg, sc relative to baseline. The settings on record: route subcutaneous. Format: functional.
A short description of data set [16]: Lipophilicity, logP of the compound. Format: physicochemical. The following applies: octanol/water.
For data set [17], the target named is Voltage-gated inwardly rectifying potassium channel KCNH2 (Homo sapiens, UniProt Q12809). Briefly: Displacement of [3H]dofetilide from human ERG channel.
In data set [18] the target is T2, 5-hydroxytryptamine receptor 2C (Homo sapiens) (UniProt P28335).
T2 sequence (whole entry): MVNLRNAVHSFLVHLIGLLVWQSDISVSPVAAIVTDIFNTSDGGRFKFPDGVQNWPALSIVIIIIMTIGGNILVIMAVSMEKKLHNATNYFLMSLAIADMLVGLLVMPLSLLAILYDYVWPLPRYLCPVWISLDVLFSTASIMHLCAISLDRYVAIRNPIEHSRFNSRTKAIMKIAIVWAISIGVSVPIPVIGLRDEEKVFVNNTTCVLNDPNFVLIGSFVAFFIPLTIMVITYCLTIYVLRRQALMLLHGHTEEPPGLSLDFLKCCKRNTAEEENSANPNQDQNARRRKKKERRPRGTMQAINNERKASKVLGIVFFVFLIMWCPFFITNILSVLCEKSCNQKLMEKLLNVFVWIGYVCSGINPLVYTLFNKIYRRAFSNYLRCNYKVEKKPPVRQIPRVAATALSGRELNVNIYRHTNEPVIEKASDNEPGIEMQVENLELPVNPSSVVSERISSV
Briefly: Inhibition of 5HT2C receptor at 10 uM.

Data set [19] concerns the target Kappa-type opioid receptor (Homo sapiens) (UniProt P41145). Briefly: Inhibition of kappa opioid receptor at 10 uM.

Where only a bound is given, the exact number is not on record here.

Sodium-dependent noradrenaline transporter, sequence (P23975 whole entry): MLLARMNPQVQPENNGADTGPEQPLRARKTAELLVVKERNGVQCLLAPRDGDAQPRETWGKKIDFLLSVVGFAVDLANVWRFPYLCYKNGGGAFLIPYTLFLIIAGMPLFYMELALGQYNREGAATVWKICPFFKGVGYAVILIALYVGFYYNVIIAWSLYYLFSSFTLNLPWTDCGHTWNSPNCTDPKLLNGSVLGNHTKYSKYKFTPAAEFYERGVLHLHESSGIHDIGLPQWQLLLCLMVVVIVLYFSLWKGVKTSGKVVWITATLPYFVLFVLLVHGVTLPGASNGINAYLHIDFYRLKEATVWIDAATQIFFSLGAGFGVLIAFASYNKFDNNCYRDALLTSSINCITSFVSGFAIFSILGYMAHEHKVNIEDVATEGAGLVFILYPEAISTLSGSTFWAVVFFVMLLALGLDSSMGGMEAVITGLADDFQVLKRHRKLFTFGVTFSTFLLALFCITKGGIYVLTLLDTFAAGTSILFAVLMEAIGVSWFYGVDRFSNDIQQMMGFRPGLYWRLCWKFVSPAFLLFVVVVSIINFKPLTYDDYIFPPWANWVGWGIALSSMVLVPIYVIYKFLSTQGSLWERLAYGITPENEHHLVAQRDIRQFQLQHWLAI
Sodium-dependent dopamine transporter, sequence (Q01959 whole entry): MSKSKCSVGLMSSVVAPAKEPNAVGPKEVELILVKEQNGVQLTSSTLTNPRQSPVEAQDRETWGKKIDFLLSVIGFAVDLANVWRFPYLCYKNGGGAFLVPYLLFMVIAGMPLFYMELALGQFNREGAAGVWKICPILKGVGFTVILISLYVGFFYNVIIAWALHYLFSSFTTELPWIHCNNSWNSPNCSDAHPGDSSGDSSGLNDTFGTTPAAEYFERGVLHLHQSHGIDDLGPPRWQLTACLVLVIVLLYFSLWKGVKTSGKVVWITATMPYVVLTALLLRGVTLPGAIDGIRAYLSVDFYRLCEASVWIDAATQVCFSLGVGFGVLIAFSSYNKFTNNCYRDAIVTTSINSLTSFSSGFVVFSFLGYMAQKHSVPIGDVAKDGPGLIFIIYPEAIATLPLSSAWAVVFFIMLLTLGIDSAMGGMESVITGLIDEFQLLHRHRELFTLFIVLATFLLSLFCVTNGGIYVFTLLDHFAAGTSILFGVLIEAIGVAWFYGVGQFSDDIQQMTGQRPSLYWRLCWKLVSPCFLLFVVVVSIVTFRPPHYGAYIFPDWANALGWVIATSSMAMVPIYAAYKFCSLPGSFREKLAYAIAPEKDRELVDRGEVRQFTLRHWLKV
Sodium-dependent serotonin transporter, sequence (P31645 whole entry): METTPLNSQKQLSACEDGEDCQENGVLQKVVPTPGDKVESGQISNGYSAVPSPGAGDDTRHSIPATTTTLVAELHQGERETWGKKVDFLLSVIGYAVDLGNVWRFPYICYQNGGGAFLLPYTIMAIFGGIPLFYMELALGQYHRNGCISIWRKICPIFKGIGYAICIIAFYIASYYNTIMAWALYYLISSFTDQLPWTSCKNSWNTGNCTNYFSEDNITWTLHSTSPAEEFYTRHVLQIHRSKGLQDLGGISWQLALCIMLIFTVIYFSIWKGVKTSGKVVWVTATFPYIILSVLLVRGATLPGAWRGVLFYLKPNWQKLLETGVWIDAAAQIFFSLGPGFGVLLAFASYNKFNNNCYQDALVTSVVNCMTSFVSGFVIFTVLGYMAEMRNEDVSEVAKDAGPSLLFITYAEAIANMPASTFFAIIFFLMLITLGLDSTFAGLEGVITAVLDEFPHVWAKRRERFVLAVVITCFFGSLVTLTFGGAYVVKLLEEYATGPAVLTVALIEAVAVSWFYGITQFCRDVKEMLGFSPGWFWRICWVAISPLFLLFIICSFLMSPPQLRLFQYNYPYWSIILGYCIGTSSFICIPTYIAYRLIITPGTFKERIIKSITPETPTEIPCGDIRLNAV
Voltage-gated inwardly rectifying potassium channel KCNH2, sequence (Q12809 whole entry): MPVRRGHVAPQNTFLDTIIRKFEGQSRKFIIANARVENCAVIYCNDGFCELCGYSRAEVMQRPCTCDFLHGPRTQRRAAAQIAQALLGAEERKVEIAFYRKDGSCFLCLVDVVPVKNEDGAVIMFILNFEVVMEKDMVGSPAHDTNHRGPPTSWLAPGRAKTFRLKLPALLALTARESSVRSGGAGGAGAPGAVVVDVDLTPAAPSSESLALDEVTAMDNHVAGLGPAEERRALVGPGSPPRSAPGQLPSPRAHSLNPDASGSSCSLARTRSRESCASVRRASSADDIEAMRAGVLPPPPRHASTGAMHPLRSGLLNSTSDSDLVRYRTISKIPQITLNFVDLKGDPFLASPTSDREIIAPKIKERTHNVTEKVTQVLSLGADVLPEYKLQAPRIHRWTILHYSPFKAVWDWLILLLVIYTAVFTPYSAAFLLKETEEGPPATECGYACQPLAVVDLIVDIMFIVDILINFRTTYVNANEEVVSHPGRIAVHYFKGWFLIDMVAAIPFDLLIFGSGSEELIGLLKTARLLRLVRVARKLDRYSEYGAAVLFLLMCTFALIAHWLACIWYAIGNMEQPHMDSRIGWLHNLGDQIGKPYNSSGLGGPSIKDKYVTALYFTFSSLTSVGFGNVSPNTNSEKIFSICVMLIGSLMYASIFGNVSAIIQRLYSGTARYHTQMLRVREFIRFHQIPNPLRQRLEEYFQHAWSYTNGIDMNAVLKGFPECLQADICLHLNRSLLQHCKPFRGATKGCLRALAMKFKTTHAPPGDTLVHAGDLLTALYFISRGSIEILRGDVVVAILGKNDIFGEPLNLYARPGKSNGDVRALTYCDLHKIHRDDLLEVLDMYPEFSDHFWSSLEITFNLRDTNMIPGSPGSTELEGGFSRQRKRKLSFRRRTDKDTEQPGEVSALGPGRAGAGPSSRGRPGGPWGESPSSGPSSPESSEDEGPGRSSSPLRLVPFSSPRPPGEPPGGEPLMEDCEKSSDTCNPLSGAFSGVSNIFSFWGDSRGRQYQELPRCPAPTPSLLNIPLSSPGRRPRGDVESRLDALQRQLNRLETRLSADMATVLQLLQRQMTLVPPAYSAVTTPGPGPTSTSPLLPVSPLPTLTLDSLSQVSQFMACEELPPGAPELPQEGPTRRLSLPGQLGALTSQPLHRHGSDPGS
Cytochrome P450 2D6, sequence (P10635 whole entry): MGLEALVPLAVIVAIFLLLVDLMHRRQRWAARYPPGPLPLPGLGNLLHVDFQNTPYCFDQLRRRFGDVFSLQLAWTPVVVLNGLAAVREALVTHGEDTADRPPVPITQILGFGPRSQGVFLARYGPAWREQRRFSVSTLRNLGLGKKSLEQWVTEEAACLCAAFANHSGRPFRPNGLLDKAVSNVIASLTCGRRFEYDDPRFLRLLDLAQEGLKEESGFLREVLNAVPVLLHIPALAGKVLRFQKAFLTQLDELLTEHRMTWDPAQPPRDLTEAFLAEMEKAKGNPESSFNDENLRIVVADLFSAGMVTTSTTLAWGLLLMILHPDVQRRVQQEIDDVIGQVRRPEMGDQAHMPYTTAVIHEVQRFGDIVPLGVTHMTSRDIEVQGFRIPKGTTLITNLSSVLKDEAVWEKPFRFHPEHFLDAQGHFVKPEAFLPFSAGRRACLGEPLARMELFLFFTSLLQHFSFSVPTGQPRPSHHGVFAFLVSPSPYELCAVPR
Kappa-type opioid receptor (Homo sapiens), sequence (P41145 whole entry): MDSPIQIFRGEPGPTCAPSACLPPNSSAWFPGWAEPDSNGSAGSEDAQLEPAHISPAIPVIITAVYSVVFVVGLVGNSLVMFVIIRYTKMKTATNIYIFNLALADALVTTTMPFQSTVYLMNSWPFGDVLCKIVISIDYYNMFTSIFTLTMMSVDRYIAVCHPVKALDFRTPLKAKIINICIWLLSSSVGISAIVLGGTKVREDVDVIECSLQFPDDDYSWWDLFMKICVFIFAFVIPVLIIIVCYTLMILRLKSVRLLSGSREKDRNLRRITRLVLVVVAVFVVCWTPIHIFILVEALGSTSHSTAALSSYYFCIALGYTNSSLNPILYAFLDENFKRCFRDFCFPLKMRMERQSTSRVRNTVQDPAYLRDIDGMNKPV
Cytochrome P450 3A4, sequence (P08684 whole entry): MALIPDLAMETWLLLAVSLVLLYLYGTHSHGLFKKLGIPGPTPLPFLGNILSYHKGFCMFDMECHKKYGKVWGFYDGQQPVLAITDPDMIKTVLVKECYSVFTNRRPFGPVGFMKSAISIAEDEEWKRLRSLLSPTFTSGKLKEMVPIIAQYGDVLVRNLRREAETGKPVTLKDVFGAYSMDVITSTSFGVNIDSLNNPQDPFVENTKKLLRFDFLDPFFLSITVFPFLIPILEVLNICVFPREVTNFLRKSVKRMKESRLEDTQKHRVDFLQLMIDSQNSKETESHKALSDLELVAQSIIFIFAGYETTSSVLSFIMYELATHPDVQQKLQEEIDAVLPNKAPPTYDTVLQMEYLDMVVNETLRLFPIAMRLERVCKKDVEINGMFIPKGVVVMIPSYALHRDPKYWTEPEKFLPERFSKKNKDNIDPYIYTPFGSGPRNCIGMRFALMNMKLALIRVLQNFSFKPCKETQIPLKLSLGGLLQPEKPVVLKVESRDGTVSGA
Mu-type opioid receptor (Homo sapiens), sequence (P35372 whole entry): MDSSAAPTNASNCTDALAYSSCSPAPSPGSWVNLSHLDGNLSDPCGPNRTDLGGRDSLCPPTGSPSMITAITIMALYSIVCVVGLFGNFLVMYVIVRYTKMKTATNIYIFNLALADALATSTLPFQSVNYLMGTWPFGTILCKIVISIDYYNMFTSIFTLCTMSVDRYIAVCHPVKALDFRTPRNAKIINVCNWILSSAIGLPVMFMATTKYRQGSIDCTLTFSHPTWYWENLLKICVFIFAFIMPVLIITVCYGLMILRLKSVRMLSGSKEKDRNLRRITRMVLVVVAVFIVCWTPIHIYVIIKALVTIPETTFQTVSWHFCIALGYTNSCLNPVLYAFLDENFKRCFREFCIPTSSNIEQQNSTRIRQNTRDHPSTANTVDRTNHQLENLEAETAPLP

As for `CNCc1cnc(C)cc1Oc1ccccc1OC`, the inhibition constant (Ki) in data set [1] is 4800 nM; in data set [2] it was 265 nM; in [3], 921 nM.
On the same counts, the results for `COc1ccccc1Oc1cc(C)ncc1CN(C)C` are 4060 nM, 1420 nM and 296 nM.
On to `CSc1ccccc1Oc1cc(C)ncc1CN(C)C`, for which the results for the inhibition constant (Ki) in [1], in data set [2] and in data set [3] were 1930 nM, 384 nM and 58 nM, respectively.
As for `CNCc1cnc(C)cc1Oc1ccccc1C`, the inhibition constant (Ki) in data set [1] came to 1520 nM; in [2] it was 136 nM; in data set [3], 951 nM.
The corresponding values for `CCOc1ccccc1Oc1cc(C)ncc1CNC` are 2390 nM, 218 nM and 461 nM.
As for `CNCc1cnc(C)cc1Oc1ccccc1C(C)C`, the inhibitory constant (Ki) in [1] turned out to be 2130 nM; in [2], 1980 nM; in data set [3] it was 82 nM.
Turning to `Cc1cc(Oc2ccccc2C(C)C)c(CN(C)C)cn1`, the Papp A→B in the data set on P-gp [4] was determined as 38 ×10⁻⁶ cm/s. Further, the Papp B→A in the data set with P-gp [5] stood at 39 ×10⁻⁶ cm/s. For the same molecule, the Ki came to 2880 nM in data set [1], 1470 nM in [2] and 13 nM in data set [3]. The intrinsic clearance (microsomal CLint) in data set [6] was found to be 17 µL/min/mg. Besides, the pH-dependent lipophilicity (logD) in data set [7] worked out at 2.5.
Take `CNCc1cnc(C)cc1Oc1ccccc1SC`: the values for the inhibition constant Ki in data set [1], in data set [2] and in data set [3] were 1750 nM, 133 nM and 232 nM, respectively.
As for `CCc1cc(Cl)ccc1Oc1cc(C)ncc1CN(C)C`, the figures for the Ki in [2] and in data set [3] were 13 nM and 22 nM, respectively.
For the molecule `CCc1cc(Cl)ccc1Oc1cc(C)ncc1CNC`, the Ki in [1] came out at 4350 nM; in data set [2], 18 nM; in [3] it was 74 nM.
The corresponding values for `CCCc1ccccc1Oc1cc(C)ncc1CNC` are 1980 nM, 821 nM and 438 nM.
As for `Cc1cc(Oc2ccccc2C)c(CN(C)C)cn1`, the results for the Ki in data set [1], in data set [2] and in data set [3] were 1410 nM, 235 nM and 194 nM, respectively.
As for `Cc1cc(Oc2ccccc2Oc2ccccc2)c(CN(C)C)cn1`, in the data set with P-gp [4], the apical-to-basolateral permeability (Papp A→B) was 41 ×10⁻⁶ cm/s. The Papp B→A with P-gp [5] was 36 ×10⁻⁶ cm/s. Besides, the inhibition constant (Ki) in data set [1] came out at 2640 nM; in data set [2] it was 4060 nM; in data set [3], 10 nM. Further, the microsomal CLint in data set [6] came out at 29 µL/min/mg. The same molecule returned a logD in [7] of 2.4. The molecule further showed a pKa in data set [8] of 4.4. For the same molecule, the concentration for half-maximal inhibition (IC50) against Cytochrome P450 2D6 came to 610 nM.
On to `CNCc1cnc(C)cc1Oc1ccccc1Oc1ccccc1`, for which the inhibition in [9], in [18] and in data set [19] was greater than 80% each time. Also, the CL in the data set with Hepatocyte was found to be 8 µL/min/mg. This molecule gave a half-life in [10] greater than 2 h. The Papp A→B was determined as 25 ×10⁻⁶ cm/s in the data set on P-gp [4] and 11 ×10⁻⁶ cm/s in data set [11]. Moreover, the Papp B→A in the data set with P-gp [5] turned out to be 41 ×10⁻⁶ cm/s; in data set [12], 19 ×10⁻⁶ cm/s. The 50% inhibitory concentration (IC50) against Cytochrome P450 1A2 was greater than 3000 nM; at Cytochrome P450 3A4, greater than 3000 nM; in data set [15], 2.5 nM; against Cytochrome P450 2D6, 3400 nM. Besides, the Ki in [13] came out at 3400 nM; in data set [14], 1200 nM; in data set [1], 1910 nM; in [2], 823 nM; in data set [17] it was 5800 nM; in data set [3] it was 10 nM. The Activity in the data set with Rattus norvegicus is given as 400%. The logP in data set [16] was 4.4. In addition, the microsomal CLint in [6] was less than 7 µL/min/mg. The molecule further displayed a logD in data set [7] of 1.6. In [8], this molecule displayed a pKa of 4.4.
In the case of `CCCc1ccccc1Oc1cc(C)ncc1CN(C)C`, the inhibition constant Ki in [1] is 2250 nM; in [2], 2820 nM; in [3], 159 nM.
In the case of `CCc1ccccc1Oc1cc(C)ncc1CN(C)C`, the Ki in data set [1] turned out to be 2660 nM; in data set [2] it was 279 nM; in [3] it was 27 nM. In addition, the intrinsic metabolic clearance (microsomal CLint) in data set [6] was less than 7 µL/min/mg. For the same molecule, the logD in [7] is 2.1. The molecule further had an IC50 in data set [17] greater than 20000 nM.
Regarding `CCOc1ccccc1Oc1cc(C)ncc1CN(C)C`, the Ki in [1] was 2150 nM; in data set [2], 4750 nM.
Consider `CNCc1cnc(C)cc1Oc1ccccc1Cl`, for which the inhibition constant Ki in data set [1] was 834 nM; in data set [2], 88 nM; in [3] it was 255 nM.
On the same counts, the results for `Cc1cc(Oc2ccccc2Cl)c(CN(C)C)cn1` are 1160 nM, 242 nM and 131 nM.
The corresponding values for `CCc1ccccc1Oc1cc(C)ncc1CNC` are 2280 nM, 440 nM and 366 nM.

Source of the values: ChEMBL document CHEMBL1144031, “[4-(Phenoxy)pyridin-3-yl]methylamines: a new class of selective noradrenaline reuptake inhibitors” (Bioorg Med Chem Lett, 2008).
